# Data published in the supplement of paper PMC10307832.
# Legend:
# Test in all cases: relative viability (nuclei count vs DMSO), 5 days (fraction); higher = more cells survive
# MK-8033 + Luminespib = compound: Cn1cc(-c2cnc3ccc4ccc(CS(=O)(=O)NCc5ccccn5)cc4c(=O)c3c2)cn1 [MK-8033] + CCNC(=O)c1noc(-c2cc(C(C)C)c(O)cc2O)c1-c1ccc(CN2CCOCC2)cc1 [Luminespib] (partner 0.01 µM)
# In short: (§1)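 Medians of duplicate plates are given as relative viability. That measure is the nuclei count in treated wells divided by the count in vehicle wells. Counts were taken on 4× images of lung cancer cell lines in 1536-well plates, 5 days after pin-tool dosing the day after seeding with one drug alone or a fixed anchor-drug dose plus five library-drug doses (not always all listed) in √10 steps.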
# RU-SKI 43 + Dasatinib = compound: CC[C@@H](C)CNCC(=O)N1CCC2=C([C@@H]1COC3=CC=CC(=C3)C)C=CS2 [RU-SKI 43] + Cc1nc(Nc2ncc(C(=O)Nc3c(C)cccc3Cl)s2)cc(N2CCN(CCO)CC2)n1 [Dasatinib] (partner 0.075 µM)
# In short: as §1
# Irinotecan + Pictilisib = compound: CCc1c2c(nc3ccc(OC(=O)N4CCC(N5CCCCC5)CC4)cc13)-c1cc3c(c(=O)n1C2)COC(=O)[C@]3(O)CC [Irinotecan] + CS(=O)(=O)N1CCN(Cc2cc3nc(-c4cccc5[nH]ncc45)nc(N4CCOCC4)c3s2)CC1 [Pictilisib] (partner 1 µM)
# In short: as §1
# MK-8033 + Lapatinib = compound: Cn1cc(-c2cnc3ccc4ccc(CS(=O)(=O)NCc5ccccn5)cc4c(=O)c3c2)cn1 [MK-8033] + CS(=O)(=O)CCNCc1ccc(-c2ccc3ncnc(Nc4ccc(OCc5cccc(F)c5)c(Cl)c4)c3c2)o1 [Lapatinib] (partner 2 µM)
# In short: as §1
Cell Line,relative viability (MK-8033 + Luminespib; first compound 0.02 µM),relative viability (MK-8033 + Luminespib; first compound 0.06325 µM),relative viability (MK-8033 + Luminespib; first compound 0.2 µM),relative viability (MK-8033 + Luminespib; first compound 0.6325 µM),relative viability (MK-8033 + Luminespib; first compound 2 µM),relative viability (RU-SKI 43 + Dasatinib; first compound 0.1 µM),relative viability (RU-SKI 43 + Dasatinib; first compound 0.3162 µM),relative viability (RU-SKI 43 + Dasatinib; first compound 1 µM),relative viability (RU-SKI 43 + Dasatinib; first compound 3.162 µM),relative viability (RU-SKI 43 + Dasatinib; first compound 10 µM),relative viability (Irinotecan + Pictilisib; first compound 0.6325 µM),relative viability (Irinotecan + Pictilisib; first compound 2 µM),relative viability (Irinotecan + Pictilisib; first compound 6.325 µM),relative viability (Irinotecan + Pictilisib; first compound 20 µM),relative viability (MK-8033 + Lapatinib; first compound 0.02 µM),relative viability (MK-8033 + Lapatinib; first compound 0.06325 µM),relative viability (MK-8033 + Lapatinib; first compound 0.2 µM),relative viability (MK-8033 + Lapatinib; first compound 0.6325 µM),relative viability (MK-8033 + Lapatinib; first compound 2 µM)
NCI-H522,0.987,1.02,0.955,1.29,0.946,0.896,0.954,1.11,1.03,0.828,,,,,,,,,
NCI-H358,0.417,0.236,0.235,0.296,0.213,0.166,0.127,0.131,0.151,0.167,0.265,0.387,0.282,0.171,0.427,0.317,0.44,0.42,0.456
NCI-H1755,0.371,0.387,0.411,0.282,0.467,0.417,0.474,0.469,0.521,0.379,0.249,0.382,0.224,0.361,1.06,0.986,1.02,1.02,0.957
LCLC-103H,0.95,0.927,0.954,0.866,0.952,0.502,0.481,0.64,0.453,0.49,0.406,0.51,0.331,0.408,,,,,
HOP-62,0.938,0.794,0.814,0.941,0.86,0.741,0.709,0.875,0.641,0.603,0.239,0.261,0.13,0.269,1.01,0.753,0.786,1.07,0.987
HCC-78,,,,,,0.457,0.349,0.607,0.319,0.369,0.276,0.172,0.149,0.158,0.765,0.811,0.65,,0.94
NCI-H650,0.827,0.787,0.819,0.833,0.769,0.484,0.45,0.468,0.398,0.45,0.798,0.297,0.294,0.307,0.759,0.966,0.838,0.845,0.921
NCI-H1563,0.491,0.589,0.541,0.483,0.539,0.4,0.409,0.534,0.404,0.467,0.59,0.684,0.731,0.3,0.965,0.833,0.966,0.864,0.886
ABC-1,0.544,0.545,,0.602,0.473,0.664,0.443,0.638,0.553,0.501,,0.556,0.424,0.112,1.19,1.35,0.955,1.1,1.43
Calu-6,,,,,,,,,,,0.573,0.417,0.219,0.0958,1.06,1.03,0.971,1.15,1.19
EBC-1,,,,,,,,,,,0.29,0.301,0.315,0.131,0.182,0.218,0.217,0.21,0.203
NCI-H520,0.22,0.207,0.226,0.211,0.219,0.188,0.233,0.297,0.272,0.191,0.225,0.324,0.201,0.152,0.959,0.853,0.784,0.867,0.79
NCI-H322M,0.85,0.85,0.78,0.873,0.842,0.256,0.238,0.255,0.249,0.259,0.532,0.507,0.344,0.338,0.605,0.508,0.531,0.575,0.602
201T,0.986,1.07,0.957,1.06,1.03,0.565,0.547,0.624,0.627,0.56,,0.738,0.36,0.346,1.03,0.906,0.995,1.07,1.07
RERF-LC-KJ,1.14,1.14,1.25,1.24,1.06,0.788,0.938,0.992,0.771,0.704,0.516,0.422,0.455,0.418,0.901,0.823,0.854,0.798,0.815
A549,,,,,,,,,,,0.502,0.452,0.139,0.0724,0.911,0.954,0.967,0.946,1.02
NCI-H1623,0.4,0.479,0.429,0.498,0.363,0.513,0.514,0.668,0.541,0.468,,,,,,,,,
NCI-H1651,1.02,0.846,0.733,0.853,0.874,0.439,0.393,0.412,0.332,0.491,0.427,0.425,0.175,0.108,0.842,0.658,0.874,0.892,0.762
NCI-H2405,0.711,0.614,0.65,0.64,0.814,0.213,0.198,0.218,0.209,0.194,,0.477,0.326,0.132,0.967,0.944,1.09,1.03,1.1
NCI-H727,0.434,,0.291,0.346,0.516,0.438,0.285,0.426,0.473,0.307,0.277,0.353,0.35,0.289,0.759,0.72,0.665,0.748,0.858
